The values that follow come from patent publication USRE47193E1, “Selectively substituted quinoline compounds” (EISAI R&D MANAGEMENT CO., LTD., priority 2013, dated 2019).

Where two headings read alike, the source gives them in different places.

This assay addresses T1, mouse TLR7 (Mus musculus, UniProt P58681).
T1 sequence (P58681 27-1050): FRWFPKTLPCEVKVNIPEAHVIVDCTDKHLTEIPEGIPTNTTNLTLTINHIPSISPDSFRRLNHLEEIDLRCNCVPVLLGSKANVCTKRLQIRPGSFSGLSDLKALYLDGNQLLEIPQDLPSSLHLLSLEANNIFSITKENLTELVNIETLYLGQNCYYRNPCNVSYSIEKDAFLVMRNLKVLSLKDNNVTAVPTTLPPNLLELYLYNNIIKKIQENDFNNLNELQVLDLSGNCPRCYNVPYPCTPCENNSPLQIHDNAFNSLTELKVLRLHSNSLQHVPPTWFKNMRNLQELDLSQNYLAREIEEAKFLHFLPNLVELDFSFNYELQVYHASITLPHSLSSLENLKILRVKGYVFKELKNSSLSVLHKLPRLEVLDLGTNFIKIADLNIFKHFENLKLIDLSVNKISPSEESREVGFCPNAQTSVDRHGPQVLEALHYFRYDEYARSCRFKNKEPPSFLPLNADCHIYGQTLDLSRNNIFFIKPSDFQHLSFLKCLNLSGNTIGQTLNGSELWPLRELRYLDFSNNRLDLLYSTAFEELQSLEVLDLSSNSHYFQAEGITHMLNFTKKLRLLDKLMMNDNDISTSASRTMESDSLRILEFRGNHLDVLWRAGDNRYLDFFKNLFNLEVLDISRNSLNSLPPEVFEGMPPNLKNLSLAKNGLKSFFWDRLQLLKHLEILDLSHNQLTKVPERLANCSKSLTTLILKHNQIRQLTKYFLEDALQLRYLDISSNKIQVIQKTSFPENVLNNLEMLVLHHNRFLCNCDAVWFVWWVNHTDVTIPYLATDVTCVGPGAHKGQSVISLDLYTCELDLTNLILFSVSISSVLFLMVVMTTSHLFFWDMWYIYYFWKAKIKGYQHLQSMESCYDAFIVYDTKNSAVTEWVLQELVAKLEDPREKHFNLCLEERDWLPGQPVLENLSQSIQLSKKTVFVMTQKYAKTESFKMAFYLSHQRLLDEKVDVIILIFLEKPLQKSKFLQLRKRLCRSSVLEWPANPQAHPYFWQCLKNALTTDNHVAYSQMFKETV
The assay can be described thus: HEK-293 mouse TLR7 NF-kappaB luciferase reporter assay (CL097). Particulars: HEK-mTLR7, average of three tests. It is filed as cell-based. On the procedure: Effects on mouse TLR7 were also compared. Cells were stimulated overnight with TLR7/8 agonist CL097 at pre-determined ED70-80: 3 ug/ml for HEK-hTLR7, 1.5 ug/ml for HEK-mTLR7 and 12 ug/ml for HEK-hTLR8, before reading luminescence intensity. Three tests were performed and IC50 value was determined using Graphpad Prism 6 nonlinear regression curve fit.
HEK-293 cells (ATCC) were engineered to stably express a NF-kappaB transcription factor inducible E-selectin (ELAM-1) luciferase reporter derived from the plasmid pGL3 (Promega) containing base pairs −2241 bp to −254 bp from the promoter of the human E-selectin gene (Accession No. NM_000450). These cells were then subsequently engineered to stably and individually express human TLR4, TLR7 or TLR9 full-length ORF cDNAs. Human TLR4 cDNA (Accession No. NM_138554) was cloned into pcDNA 3.0 expression vector (Invitrogen). TLR4 transfected cells were also engineered to express human MD-2 co-receptor [MD-2 cDNA (Accession No. NM_015364) was cloned into the pEF-BOS vector] and were supplemented with 10 nM soluble CD14 (R&D Systems) in the media to optimize LPS responsiveness. Human TLR9 cDNA (Accession No. NM_017442) was cloned into the pBluescript II KS vector (Agilent). Human TLR7 cDNA (Accession No. NM_016562) was obtained from OriGene. […]

Take `CCN(CCO)CCCC(C)Nc1ccnc2cc(Cl)ccc12` (centres unmarked) [HCQ, hydroxychloroquine, reference compound]: where the note is “read-out: IC50 average”, the IC50 amounted to 14.1 µM. Under “IC50 average”, `C[C@@H]1CN(c2ccc(C#N)c3ncccc23)C[C@H](C(=O)N[C@H]2CNC[C@H]2F)O1.Cl` [ER-899742, (2R,6R)-4-(8-cyanoquinolin-5-yl)-N-[(3S,4R)-4-fluoropyrrolidin-3-yl]-6-methylmorpholine-2-carboxamide hydrochloride] had an IC50 of 0.071 µM.

A word on the IC50: it is the concentration that inhibits the measured activity by half.
